Reference: PMC11108815 (Heliyon, 2024)
Marks after values point to notes of the source that are not given here.

Tests used:
[1] = Stability test of QC samples; assay type: physicochemical, rat
[2] = Pharmacokinetics in rat plasma; assay type: in vivo, Wistar rats; settings: for AUC(0-inf): AUC0-∞; for CL/F: CLz/F; for MRT last: MRT0-t; for MRT inf: MRT0-∞
[3] = Store at 4 °C for 24 h, high concentration QC sample in rat plasma
[4] = Store at 4 °C for 24 h, low concentration QC sample in rat plasma
[5] = Store at 4 °C for 24 h, medium concentration QC sample in rat plasma
[6] = Store at room temperature for 12 h, high concentration QC sample in rat plasma
[7] = Store at room temperature for 12 h, low concentration QC sample in rat plasma
[8] = Store at room temperature for 12 h, medium concentration QC sample in rat plasma
[9] = Store at −20 °C for 20 days, high concentration QC sample in rat plasma
[10] = Store at −20 °C for 20 days, low concentration QC sample in rat plasma
[11] = Store at −20 °C for 20 days, medium concentration QC sample in rat plasma
[12] = Three freeze-thaw cycles, high concentration QC sample in rat plasma
[13] = Three freeze-thaw cycles, low concentration QC sample in rat plasma
[14] = Three freeze-thaw cycles, medium concentration QC sample in rat plasma
[15] = FS-C: normal (blank) rats, oral FS 100 mg kg^−1, n = 6
[16] = FS-M: microcirculation dysfunction model rats, oral FS 100 mg kg^−1, n = 6
[17] = FT-C: normal (blank) rats, oral FT 100 mg kg^−1, n = 6
[18] = FT-M: microcirculation dysfunction model rats, oral FT 100 mg kg^−1, n = 6
[19] = Wistar, rat, plasma, po, 100 mg/kg, FS-C: normal (blank) rats, oral FS 100 mg kg^−1, n = 6
[20] = Wistar, rat, plasma, po, 100 mg/kg, FT-C: normal (blank) rats, oral FT 100 mg kg^−1, n = 6

SMILES: O=C(/C=C/c1ccc(O)c2oc(-c3ccc(O)c(O)c3)cc12)O[C@H](Cc1ccc(O)c(O)c1)C(=O)O [Salvianolic acid C]
- Stability, Accuracy (RE, %) [1, 3]: 7.30%
- Stability, Accuracy (RE, %) [1, 4]: −9.02%
- Stability, Accuracy (RE, %) [1, 5]: −3.01%
- Stability, Accuracy (RE, %) [1, 6]: −13.32%
- Stability, Accuracy (RE, %) [1, 7]: 4.15%
- Stability, Accuracy (RE, %) [1, 8]: 1.94%
- Stability, Accuracy (RE, %) [1, 9]: −1.60%
- Stability, Accuracy (RE, %) [1, 10]: −1.94%
- Stability, Accuracy (RE, %) [1, 11]: 4.74%
- Stability, Accuracy (RE, %) [1, 12]: −3.54%
- Stability, Accuracy (RE, %) [1, 13]: −5.18%
- Stability, Accuracy (RE, %) [1, 14]: 7.92%
- AUC0-∞ [2, 15]: 33.09 ± 32.59 µg·h/L
- AUC(0-t) [2, 15]: 30.14 ± 25.77 µg·h/L
- CLz/F [2, 15]: 63.67 ± 33.45 L/h/kg
- Cmax [2, 15]: 11.01 ± 2.17 µg/L
- MRT0-t [2, 15]: 3.65 ± 4.31 h
- MRT0-∞ [2, 15]: 4.61 ± 6.46 h
- T1/2 [2, 15]: 7.30 ± 4.55 h
- Tmax [2, 15]: 0.67 ± 0.26 h
- AUC0-∞ [2, 16]: 55.32 ± 49.60 µg·h/L
- AUC(0-t) [2, 16]: 39.25 ± 24.96 µg·h/L
- CLz/F [2, 16]: 41.35 ± 24.97 L/h/kg
- Cmax [2, 16]: 11.09 ± 3.14 µg/L
- MRT0-t [2, 16]: 4.52 ± 4.05 h
- MRT0-∞ [2, 16]: 10.25 ± 12.88 h
- T1/2 [2, 16]: 8.45 ± 8.99 h
- Tmax [2, 16]: 0.75 ± 0.27 h
- AUC0-∞ [2, 17]: 30.07 ± 23.22 µg·h/L
- AUC(0-t) [2, 17]: 29.34 ± 21.99 µg·h/L
- CLz/F [2, 17]: 68.05 ± 46.28 L/h/kg
- Cmax [2, 17]: 7.05 ± 1.64 ^b μg·L^−1
- MRT0-t [2, 17]: 4.27 ± 3.46 h
- MRT0-∞ [2, 17]: 4.55 ± 3.95 h
- T1/2 [2, 17]: 3.31 ± 1.82 h
- Tmax [2, 17]: 0.28 ± 0.14 ^b h
- AUC0-∞ [2, 18]: 40.99 ± 46.75 µg·h/L
- AUC(0-t) [2, 18]: 29.64 ± 22.98 µg·h/L
- CLz/F [2, 18]: 63.65 ± 43.57 L/h/kg
- Cmax [2, 18]: 8.95 ± 6.01 µg/L
- MRT0-t [2, 18]: 3.90 ± 3.23 h
- MRT0-∞ [2, 18]: 8.76 ± 14.72 h
- T1/2 [2, 18]: 10.67 ± 9.80 h
- Tmax [2, 18]: 1.22 ± 0.66 ^f h
- Cmax in FT compared with FS ([2]; normal group, p < 0.01, 0.05): significantly lower

SMILES: O=C(O)[C@H](O)Cc1ccc(O)c(O)c1 [Danshensu]
- Stability, Accuracy (RE, %) [1, 3]: 6.29%
- Stability, Accuracy (RE, %) [1, 4]: −5.50%
- Stability, Accuracy (RE, %) [1, 5]: 5.99%
- Stability, Accuracy (RE, %) [1, 6]: 9.76%
- Stability, Accuracy (RE, %) [1, 7]: −2.61%
- Stability, Accuracy (RE, %) [1, 8]: 1.50%
- Stability, Accuracy (RE, %) [1, 9]: −8.83%
- Stability, Accuracy (RE, %) [1, 10]: 6.50%
- Stability, Accuracy (RE, %) [1, 11]: 0.73%
- Stability, Accuracy (RE, %) [1, 12]: −3.63%
- Stability, Accuracy (RE, %) [1, 13]: 2.54%
- Stability, Accuracy (RE, %) [1, 14]: −10.44%
- AUC0-∞ [2, 15]: 641.77 ± 218.27 µg·h/L
- AUC(0-t) [2, 15]: 542.82 ± 141.09 µg·h/L
- CLz/F [2, 15]: 0.02 ± 0.01 L/h/kg
- Cmax [2, 15]: 88.45 ± 17.93 µg/L
- MRT0-t [2, 15]: 6.53 ± 2.11 h
- MRT0-∞ [2, 15]: 11.93 ± 15.11 h
- T1/2 [2, 15]: 5.74 ± 11.19 h
- Tmax [2, 15]: 0.67 ± 0.37 h
- AUC0-∞ [2, 16]: 947.33 ± 140.96 ^c μg·h·L^−1
- AUC(0-t) [2, 16]: 880.02 ± 141.73 ^d μg·h·L^−1
- CLz/F [2, 16]: 0.01 ± 0.00 ^c L·h^−1·kg^−1
- Cmax [2, 16]: 105.53 ± 11.68 µg/L
- MRT0-t [2, 16]: 7.53 ± 0.85 h
- MRT0-∞ [2, 16]: 9.53 ± 3.95 h
- T1/2 [2, 16]: 4.47 ± 3.92 h
- Tmax [2, 16]: 0.74 ± 1.60 h
- AUC0-∞ [2, 17]: 588.72 ± 114.83 µg·h/L
- AUC(0-t) [2, 17]: 584.67 ± 122.39 µg·h/L
- CLz/F [2, 17]: 0.02 ± 0.00 L/h/kg
- Cmax [2, 17]: 99.66 ± 15.57 µg/L
- MRT0-t [2, 17]: 7.54 ± 0.95 h
- MRT0-∞ [2, 17]: 7.81 ± 0.63 h
- T1/2 [2, 17]: 2.18 ± 2.22 h
- Tmax [2, 17]: 0.47 ± 0.07 h
- AUC0-∞ [2, 18]: 767.88 ± 279.35 µg·h/L
- AUC(0-t) [2, 18]: 658.64 ± 172.02 µg·h/L
- CLz/F [2, 18]: 0.02 ± 0.01 L/h/kg
- Cmax [2, 18]: 165.48 ± 7.83^f μg·L^−1
- MRT0-t [2, 18]: 5.33 ± 0.98 ^a^, ^e h
- MRT0-∞ [2, 18]: 10.76 ± 12.84 h
- T1/2 [2, 18]: 6.40 ± 11.48 h
- Tmax [2, 18]: 1.00 ± 0.00 ^f h
- AUC0-t in model group compared with control group ([2]; after modeling, p < 0.01, 0.05): significantly higher
- AUC0-∞ in model group compared with control group ([2]; after modeling, p < 0.01, 0.05): significantly higher
- MRT0-t in the model group treated with FT ([2]; compared with the control group treated with FT and the model group treated with FS): decreased
- shape of the drug-time curve ([2]; control group with oral FS): bimodal phenomenon
- CLz/F after modeling compared with control group ([2]; oral administration of FS): decrease
- Cmax after modeling compared with control group ([2]; oral administration of FT): significant increase

SMILES: O=C(/C=C/c1ccc(O)c(O)c1/C=C/c1ccc(O)c(O)c1)O[C@H](Cc1ccc(O)c(O)c1)C(=O)O [Salvianolic acid A]
- Stability, Accuracy (RE, %) [1, 3]: −0.93%
- Stability, Accuracy (RE, %) [1, 4]: 1.81%
- Stability, Accuracy (RE, %) [1, 5]: 11.49%
- Stability, Accuracy (RE, %) [1, 6]: 3.31%
- Stability, Accuracy (RE, %) [1, 7]: −1.96%
- Stability, Accuracy (RE, %) [1, 8]: −3.89%
- Stability, Accuracy (RE, %) [1, 9]: 2.45%
- Stability, Accuracy (RE, %) [1, 10]: 7.09%
- Stability, Accuracy (RE, %) [1, 11]: −9.12%
- Stability, Accuracy (RE, %) [1, 12]: −10.32%
- Stability, Accuracy (RE, %) [1, 13]: 1.08%
- Stability, Accuracy (RE, %) [1, 14]: 11.33%
- AUC(0-t) ([2]; Wistar, rat, plasma, po, 100 mg/kg, AUC0-t, FS-C: normal (blank) rats, oral FS 100 mg kg^−1, n = 6): 107 ± 46.1 µg·h/L
- AUC(0-t) ([2]; Wistar, rat, plasma, po, 100 mg/kg, AUC0-t, FT-C: normal (blank) rats, oral FT 100 mg kg^−1, n = 6): 122 ± 30.9 µg·h/L
- AUC(0-inf) [2, 19]: 168 ± 139 ng·h/mL
- AUC(0-inf) [2, 20]: 162 ± 87.3 ng·h/mL
- CL/F [2, 19]: 74.8 mL/min/kg
- CL/F [2, 20]: 37 mL/min/kg
- Cmax ([2]; Wistar, rat, plasma, po, 100 mg/kg, Cmax, FS-C: normal (blank) rats, oral FS 100 mg kg^−1, n = 6): 13.2 ± 8.35 µg/L
- Cmax ([2]; Wistar, rat, plasma, po, 100 mg/kg, Cmax, FT-C: normal (blank) rats, oral FT 100 mg kg^−1, n = 6): 8.58 ± 1.35 µg/L
- MRT last [2, 19]: 7.12 ± 2.26 h
- MRT last [2, 20]: 8.8 ± 1.62 h
- MRT inf [2, 19]: 17 ± 17.6 h
- MRT inf [2, 20]: 15 ± 11.6 h
- half-life ([2]; Wistar, rat, plasma, po, 100 mg/kg, T1/2, FS-C: normal (blank) rats, oral FS 100 mg kg^−1, n = 6): 9.92 ± 13.7 h
- half-life ([2]; Wistar, rat, plasma, po, 100 mg/kg, T1/2, FT-C: normal (blank) rats, oral FT 100 mg kg^−1, n = 6): 7.38 ± 9.48 h
- Tmax ([2]; Wistar, rat, plasma, po, 100 mg/kg, Tmax, FS-C: normal (blank) rats, oral FS 100 mg kg^−1, n = 6): 0.63 ± 0.42 h
- Tmax ([2]; Wistar, rat, plasma, po, 100 mg/kg, Tmax, FT-C: normal (blank) rats, oral FT 100 mg kg^−1, n = 6): 0.56 ± 0.36 h
- Tmax ([2]; Wistar, rat, plasma, po, 100 mg/kg, Tmax, control group, after oral administration of FS or FT): > 0.47 h
- shape of the drug-time curve ([2]; both the control and model groups treated with oral FS or FT): bimodal phenomenon
